Results from ChEMBL document CHEMBL1138068 (J Med Chem, 2006).
Active and inactive are the calls of the source. No cut-off for these calls is given here.

Columns and labels:
[1] = target: Neuronal acetylcholine receptor subunit alpha-7 (Homo sapiens) (UniProt P36544); experiment: Activity at alpha-7 nAChR assessed as stimulation of relative inward current in cultured hippocampal neurons relative to choline; type: functional, tissue-based; details: Hippocampus
[2] = target: Neuronal acetylcholine receptor subunit alpha-7 (Rattus norvegicus, UniProt Q05941); experiment: Displacement of [125I]alpha-BTX from alpha-7 nAChR in rat hippocampus membrane; type: cell membranes
Cytochrome P450 2D6 = Cytochrome P450 2D6 (Homo sapiens, UniProt P10635); experiment: Inhibition of CYP2D6; type: ADME
[3] = target: Glutamate [NMDA] receptor; experiment: Binding affinity to NMDA receptor PCP site; type: protein-complex assay, Homo sapiens
[4] = Tmax in monkey at 1 mg/kg, po; type: ADME, organism-based, Macaca mulatta; set-up: dose 1 mg/kg, route oral; details: rhesus monkey, in vivo
[5] = Half life in rat at 10 mg/kg, po; type: ADME, organism-based; set-up: dose 10 mg/kg, route oral; details: in vivo
[6] = AUC (0-infinity) in monkey at 3 mg/kg, po; type: ADME, organism-based, Macaca mulatta; set-up: time infinity, dose 3 mg/kg, route oral; details: rhesus monkey, plasma
Rattus norvegicus [7] = experiment: Effect on MK-801-induced sensory gating in Wistar rat at 1 mg/kg, sc; type: functional, organism-based; set-up: dose 1 mg/kg
[8] = target: Serotonin 3 (5-HT3) receptor; experiment: Binding affinity to 5HT3 receptor; type: protein-complex assay, Homo sapiens
[9] = Half life in rat at 3 mg/kg, iv; type: ADME, organism-based; set-up: dose 3 mg/kg, route intravenous; details: in vivo
[10] = Half life in rat at 30 mg/kg, po; type: ADME, organism-based; set-up: dose 30 mg/kg, route oral; details: in vivo
Cytochrome P450 2C9 = Cytochrome P450 2C9 (Homo sapiens, UniProt P11712); experiment: Inhibition of CYP2C9; type: ADME
[11] = Oral bioavailability in rat at 30 mg/kg, po; type: ADME, organism-based; details: in vivo
Cytochrome P450 1A2 = Cytochrome P450 1A2 (Homo sapiens, UniProt P05177); experiment: Inhibition of CYP1A2; type: ADME
[12] = Tmax in monkey at 10 mg/kg, po; type: ADME, organism-based, Macaca mulatta; set-up: dose 10 mg/kg, route oral; details: rhesus monkey, in vivo
[13] = target: Glutamate receptor ionotropic AMPA (Homo sapiens, UniProt P42261+P42262+P42263+P48058); experiment: Binding affinity to AMPA receptor; type: protein-complex assay
D(1A) dopamine receptor = D(1A) dopamine receptor (Homo sapiens, UniProt P21728); experiment: Binding affinity to D1 receptor
[14] = Clearance in monkey at 3 mg/kg, iv; type: ADME, organism-based, Macaca mulatta; set-up: dose 3 mg/kg, route intravenous; details: rhesus monkey, in vivo
[15] = Clearance in rat at 3 mg/kg, iv; type: ADME, organism-based; set-up: dose 3 mg/kg, route intravenous; details: in vivo
[16] = Tmax in monkey at 3 mg/kg, po; type: ADME, organism-based, Macaca mulatta; set-up: dose 3 mg/kg, route oral; details: rhesus monkey, in vivo
[17] = target: Glutamate [NMDA] receptor; experiment: Binding affinity to NMDA receptor glycine site; type: protein-complex assay, Homo sapiens
[18] = Half life in monkey at 3 mg/kg, po; type: ADME, organism-based, Macaca mulatta; set-up: dose 3 mg/kg, route oral; details: rhesus monkey, in vivo
[19] = Cmax in monkey at 3 mg/kg, po; type: ADME, organism-based, Macaca mulatta; set-up: dose 3 mg/kg, route oral; details: rhesus monkey, in vivo
D(3) dopamine receptor = D(3) dopamine receptor (Homo sapiens, UniProt P35462); experiment: Binding affinity to D3 receptor
Histamine H3 receptor = Histamine H3 receptor (Homo sapiens, UniProt Q9Y5N1); experiment: Binding affinity to histamine H3 receptor
[20] = AUC (0-infinity) in rat at 10 mg/kg, po; type: ADME, organism-based; set-up: time infinity, dose 10 mg/kg, route oral; details: plasma
[21] = Permeability in rat assessed as ratio of concentration in brain to plasma at 10 mg/kg, po; type: ADME, organism-based; set-up: dose 10 mg/kg, route oral; details: brain and plasma, read-out: BBR
[22] = Cmax in monkey at 10 mg/kg, po; type: ADME, organism-based, Macaca mulatta; set-up: dose 10 mg/kg, route oral; details: rhesus monkey, in vivo
[23] = Tmax in rat at 30 mg/kg, po; type: ADME, organism-based; set-up: dose 30 mg/kg, route oral; details: in vivo
[24] = Oral bioavailability in monkey at 1 mg/kg, po; type: ADME, organism-based, Macaca mulatta; details: rhesus monkey, in vivo
[25] = AUC (0-infinity) in monkey at 10 mg/kg, po; type: ADME, organism-based, Macaca mulatta; set-up: time infinity, dose 10 mg/kg, route oral; details: rhesus monkey, plasma
[26] = Half life in monkey at 10 mg/kg, po; type: ADME, organism-based, Macaca mulatta; set-up: dose 10 mg/kg, route oral; details: rhesus monkey, in vivo
[27] = Half life in monkey at 3 mg/kg, iv; type: ADME, organism-based, Macaca mulatta; set-up: dose 3 mg/kg, route intravenous; details: rhesus monkey, in vivo
[28] = AUC (0-infinity) in monkey at 3 mg/kg, iv; type: ADME, organism-based, Macaca mulatta; set-up: dose 3 mg/kg, route intravenous, time infinity; details: rhesus monkey, plasma
[29] = Oral bioavailability in monkey at 10 mg/kg, po; type: ADME, organism-based, Macaca mulatta; details: rhesus monkey, in vivo
[30] = target: Neuronal acetylcholine receptor; alpha4/beta2 (Rattus norvegicus, UniProt P09483+P12390); experiment: Inhibition of [3H]Cytisine binding to alpha-4-beta-2 nACh receptor in rat cerebral cortex membrane; type: cell membranes
Rattus norvegicus [31] = experiment: Increase in extracellular dopamine level in Wistar rat medial prefrontal cortex at 30 mg/kg, po; type: functional, organism-based; set-up: dose 30 mg/kg
[32] = target: 5-hydroxytryptamine receptor 3A (Cavia porcellus) (UniProt O70212); experiment: Antagonist activity against 5HT3 receptor assessed as inhibition of 5HT-induced contraction of guinea pig ileum; type: functional, tissue-based
[33] = Cmax in monkey at 1 mg/kg, po; type: ADME, organism-based, Macaca mulatta; set-up: dose 1 mg/kg, route oral; details: rhesus monkey, in vivo
[34] = target: Adrenergic receptor alpha-2 (Homo sapiens, UniProt P08913+P18825+P18089); experiment: Binding affinity to adrenergic alpha2 receptor; type: protein assay
[35] = Cmax in monkey at 3 mg/kg, iv; type: ADME, organism-based, Macaca mulatta; set-up: dose 3 mg/kg, route intravenous; details: rhesus monkey, in vivo
[36] = target: Muscarinic acetylcholine receptor; experiment: Binding affinity to muscarinic receptor; type: protein assay, Homo sapiens
Rattus norvegicus [37] = experiment: Reverse activity against scopolamine-induced impairment of cognitive performance in Wistar rat at 3 mg/kg, po by 8-arm radial maze task method; type: functional, organism-based; set-up: dose 3 mg/kg
[38] = Oral bioavailability in monkey at 3 mg/kg, po; type: ADME, organism-based, Macaca mulatta; details: rhesus monkey, in vivo
[39] = target: Adrenergic receptor alpha-1 (Homo sapiens, UniProt P35348+P25100+P35368); experiment: Binding affinity to adrenergic alpha-1 receptor; type: protein assay
Adrenergic receptor beta = Adrenergic receptor beta (Homo sapiens, UniProt P08588+P07550+P13945); experiment: Binding affinity to adrenergic beta receptor; type: protein assay
[40] = Volume of distribution in monkey at 3 mg/kg, iv; type: ADME, organism-based, Macaca mulatta; set-up: dose 3 mg/kg, route intravenous; details: rhesus monkey, in vivo, read-out: Vss
D(2) dopamine receptor = D(2) dopamine receptor (Homo sapiens, UniProt P14416); experiment: Binding affinity to D2 receptor
Rattus norvegicus [41] = experiment: Increase in extracellular dopamine level in Wistar rat medial prefrontal cortex at 10 mg/kg, po; type: functional, organism-based; set-up: dose 10 mg/kg
[42] = AUC (0-infinity) in rat at 30 mg/kg, po; type: ADME, organism-based; set-up: time infinity, dose 30 mg/kg, route oral; details: plasma
[43] = Cmax in rat at 30 mg/kg, po; type: ADME, organism-based; set-up: dose 30 mg/kg, route oral; details: in vivo
D(4) dopamine receptor = D(4) dopamine receptor (Homo sapiens, UniProt P21917); experiment: Binding affinity to D4 receptor
[44] = Half life in monkey at 1 mg/kg, po; type: ADME, organism-based, Macaca mulatta; set-up: dose 1 mg/kg, route oral; details: rhesus monkey, in vivo
[45] = target: 5-hydroxytryptamine receptor 1A (Homo sapiens, UniProt P08908); experiment: Binding affinity to 5HT1A receptor
Histamine H1 receptor = Histamine H1 receptor (Homo sapiens, UniProt P35367); experiment: Binding affinity to histamine H1 receptor
Cytochrome P450 3A4 = Cytochrome P450 3A4 (Homo sapiens, UniProt P08684); experiment: Inhibition of CYP3A4; type: ADME
[46] = Volume of distribution in rat at 3 mg/kg, iv; type: ADME, organism-based; set-up: dose 3 mg/kg, route intravenous; details: in vivo, read-out: Vss
[47] = AUC (0-infinity) in monkey at 1 mg/kg, po; type: ADME, organism-based, Macaca mulatta; set-up: time infinity, dose 1 mg/kg, route oral; details: rhesus monkey, plasma
Rattus norvegicus [48] = experiment: Reverse activity against scopolamine-induced impairment of cognitive performance in Wistar rat at 10 mg/kg, po by 8-arm radial maze task method; type: functional, organism-based; set-up: dose 10 mg/kg
[49] = target: Serotonin 2 (5-HT2) receptor (Homo sapiens, UniProt P41595+P28223+P28335); experiment: Binding affinity to 5HT2 receptor; type: protein assay
[50] = Tmax in monkey at 3 mg/kg, iv; type: ADME, organism-based, Macaca mulatta; set-up: dose 3 mg/kg, route intravenous; details: rhesus monkey, in vivo
[51] = Oral bioavailability in rat at 10 mg/kg, po; type: ADME, organism-based; details: in vivo
Cytochrome P450 2C19 = Cytochrome P450 2C19 (Homo sapiens, UniProt P33261); experiment: Inhibition of CYP2C19; type: ADME
[52] = Tmax in rat at 10 mg/kg, po; type: ADME, organism-based; set-up: dose 10 mg/kg, route oral; details: in vivo
[53] = Cmax in rat at 10 mg/kg, po; type: ADME, organism-based; set-up: dose 10 mg/kg, route oral; details: in vivo

Chain of Neuronal acetylcholine receptor subunit alpha-7 (Homo sapiens) (P36544 whole entry): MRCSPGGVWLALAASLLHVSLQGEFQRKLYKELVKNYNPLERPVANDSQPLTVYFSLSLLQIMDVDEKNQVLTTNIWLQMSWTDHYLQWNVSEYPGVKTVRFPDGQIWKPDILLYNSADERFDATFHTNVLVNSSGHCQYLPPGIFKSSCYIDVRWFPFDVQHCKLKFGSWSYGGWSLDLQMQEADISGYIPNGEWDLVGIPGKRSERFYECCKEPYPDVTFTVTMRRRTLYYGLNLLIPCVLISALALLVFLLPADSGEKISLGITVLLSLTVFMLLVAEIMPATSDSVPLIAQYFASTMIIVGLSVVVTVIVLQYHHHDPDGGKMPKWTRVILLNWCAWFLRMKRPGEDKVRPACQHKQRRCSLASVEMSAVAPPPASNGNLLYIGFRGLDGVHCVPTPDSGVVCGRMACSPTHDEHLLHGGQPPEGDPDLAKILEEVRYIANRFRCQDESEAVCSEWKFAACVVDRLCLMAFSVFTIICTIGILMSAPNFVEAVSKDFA
Chain of Cytochrome P450 2D6 (P10635 whole entry): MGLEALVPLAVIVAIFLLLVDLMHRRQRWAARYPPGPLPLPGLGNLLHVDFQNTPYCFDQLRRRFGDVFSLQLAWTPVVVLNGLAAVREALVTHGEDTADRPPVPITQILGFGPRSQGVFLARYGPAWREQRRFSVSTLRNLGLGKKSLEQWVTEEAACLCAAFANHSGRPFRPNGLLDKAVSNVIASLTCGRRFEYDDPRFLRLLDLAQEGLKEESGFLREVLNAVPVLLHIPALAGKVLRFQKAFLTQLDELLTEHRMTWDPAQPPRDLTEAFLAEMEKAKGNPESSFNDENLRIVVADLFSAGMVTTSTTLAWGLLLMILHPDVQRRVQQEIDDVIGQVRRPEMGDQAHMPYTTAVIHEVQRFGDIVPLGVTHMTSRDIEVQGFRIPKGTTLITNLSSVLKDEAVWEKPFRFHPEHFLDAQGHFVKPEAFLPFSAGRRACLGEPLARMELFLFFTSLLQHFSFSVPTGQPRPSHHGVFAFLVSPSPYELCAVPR
Chain of Neuronal acetylcholine receptor subunit alpha-7 (Q05941 whole entry): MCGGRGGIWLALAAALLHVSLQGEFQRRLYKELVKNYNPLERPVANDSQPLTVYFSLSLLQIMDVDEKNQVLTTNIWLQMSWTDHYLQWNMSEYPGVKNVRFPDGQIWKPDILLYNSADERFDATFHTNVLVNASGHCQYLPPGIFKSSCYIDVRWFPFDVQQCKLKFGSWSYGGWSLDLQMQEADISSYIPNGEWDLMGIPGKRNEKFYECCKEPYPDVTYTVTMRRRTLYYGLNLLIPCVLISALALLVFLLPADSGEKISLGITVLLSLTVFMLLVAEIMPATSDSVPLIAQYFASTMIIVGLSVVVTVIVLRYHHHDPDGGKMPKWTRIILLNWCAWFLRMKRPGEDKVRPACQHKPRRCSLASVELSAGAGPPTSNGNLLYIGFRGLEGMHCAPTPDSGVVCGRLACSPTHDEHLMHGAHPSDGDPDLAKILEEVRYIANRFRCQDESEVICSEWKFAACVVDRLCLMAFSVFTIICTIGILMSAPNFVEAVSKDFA
Chain of D(4) dopamine receptor (P21917 whole entry): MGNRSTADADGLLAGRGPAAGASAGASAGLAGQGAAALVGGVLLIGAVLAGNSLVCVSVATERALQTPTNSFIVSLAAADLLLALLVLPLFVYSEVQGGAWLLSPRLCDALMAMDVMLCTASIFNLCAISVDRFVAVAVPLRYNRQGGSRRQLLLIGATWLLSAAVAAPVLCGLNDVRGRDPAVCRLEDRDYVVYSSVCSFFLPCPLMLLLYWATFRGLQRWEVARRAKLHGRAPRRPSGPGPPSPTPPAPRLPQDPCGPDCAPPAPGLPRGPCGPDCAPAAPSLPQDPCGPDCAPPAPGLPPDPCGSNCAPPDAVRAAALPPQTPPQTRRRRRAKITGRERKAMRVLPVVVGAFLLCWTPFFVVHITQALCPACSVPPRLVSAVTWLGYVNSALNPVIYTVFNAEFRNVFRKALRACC
Chain of Neuronal acetylcholine receptor; alpha4/beta2 (P09483 whole entry): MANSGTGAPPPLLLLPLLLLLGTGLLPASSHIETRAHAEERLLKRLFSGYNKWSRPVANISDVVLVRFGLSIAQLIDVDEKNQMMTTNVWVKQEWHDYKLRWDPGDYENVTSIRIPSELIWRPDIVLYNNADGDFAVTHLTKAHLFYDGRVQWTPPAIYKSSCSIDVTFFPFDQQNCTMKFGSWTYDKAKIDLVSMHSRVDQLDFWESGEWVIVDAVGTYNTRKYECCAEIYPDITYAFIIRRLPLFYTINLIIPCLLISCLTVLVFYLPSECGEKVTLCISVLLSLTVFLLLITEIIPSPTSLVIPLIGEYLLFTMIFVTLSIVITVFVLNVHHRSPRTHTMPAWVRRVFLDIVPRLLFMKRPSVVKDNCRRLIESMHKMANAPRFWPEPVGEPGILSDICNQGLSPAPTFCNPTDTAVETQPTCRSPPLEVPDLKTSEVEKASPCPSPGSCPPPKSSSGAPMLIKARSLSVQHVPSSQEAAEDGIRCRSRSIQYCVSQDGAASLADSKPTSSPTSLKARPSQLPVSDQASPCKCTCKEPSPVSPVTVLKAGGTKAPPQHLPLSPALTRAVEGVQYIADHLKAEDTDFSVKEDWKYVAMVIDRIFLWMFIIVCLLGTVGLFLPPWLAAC
Chain of Neuronal acetylcholine receptor; alpha4/beta2 (P12390 whole entry): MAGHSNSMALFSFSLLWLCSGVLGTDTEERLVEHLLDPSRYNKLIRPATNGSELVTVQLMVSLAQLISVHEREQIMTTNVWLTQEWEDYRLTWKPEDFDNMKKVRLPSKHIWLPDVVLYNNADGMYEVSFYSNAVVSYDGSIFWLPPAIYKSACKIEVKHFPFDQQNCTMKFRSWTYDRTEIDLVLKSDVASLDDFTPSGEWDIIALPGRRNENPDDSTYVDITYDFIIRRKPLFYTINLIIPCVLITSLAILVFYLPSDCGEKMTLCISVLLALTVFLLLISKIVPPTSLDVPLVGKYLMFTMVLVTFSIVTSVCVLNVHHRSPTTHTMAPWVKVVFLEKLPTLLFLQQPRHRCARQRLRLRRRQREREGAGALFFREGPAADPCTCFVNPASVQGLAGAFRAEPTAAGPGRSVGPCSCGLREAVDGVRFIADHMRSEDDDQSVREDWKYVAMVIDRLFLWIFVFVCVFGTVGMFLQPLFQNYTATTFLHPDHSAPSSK
Chain of 5-hydroxytryptamine receptor 1A (P08908 whole entry): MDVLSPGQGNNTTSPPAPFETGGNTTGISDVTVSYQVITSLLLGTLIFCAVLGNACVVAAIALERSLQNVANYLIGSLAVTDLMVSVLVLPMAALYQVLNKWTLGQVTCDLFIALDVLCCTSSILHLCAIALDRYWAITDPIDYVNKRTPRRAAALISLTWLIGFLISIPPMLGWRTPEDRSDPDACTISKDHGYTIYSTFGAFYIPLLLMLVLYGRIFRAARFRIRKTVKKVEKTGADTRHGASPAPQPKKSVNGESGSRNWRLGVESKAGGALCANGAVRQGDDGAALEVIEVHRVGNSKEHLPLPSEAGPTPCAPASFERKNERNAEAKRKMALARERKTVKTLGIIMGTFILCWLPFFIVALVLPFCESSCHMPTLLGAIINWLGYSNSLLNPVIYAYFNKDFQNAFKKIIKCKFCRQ
Chain of Histamine H3 receptor (Q9Y5N1 whole entry): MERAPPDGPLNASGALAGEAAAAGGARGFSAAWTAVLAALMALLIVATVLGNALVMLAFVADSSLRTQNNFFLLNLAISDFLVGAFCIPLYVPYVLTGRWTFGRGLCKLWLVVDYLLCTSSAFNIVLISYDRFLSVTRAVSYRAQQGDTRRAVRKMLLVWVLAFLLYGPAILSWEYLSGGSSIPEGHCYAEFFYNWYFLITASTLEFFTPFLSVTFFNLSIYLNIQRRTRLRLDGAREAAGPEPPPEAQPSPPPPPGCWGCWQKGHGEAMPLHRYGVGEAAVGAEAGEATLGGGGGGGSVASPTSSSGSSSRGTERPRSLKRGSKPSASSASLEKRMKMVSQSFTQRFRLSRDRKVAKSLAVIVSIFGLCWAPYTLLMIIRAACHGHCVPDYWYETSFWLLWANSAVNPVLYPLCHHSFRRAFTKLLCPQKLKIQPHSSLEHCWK
Chain of Histamine H1 receptor (P35367 whole entry): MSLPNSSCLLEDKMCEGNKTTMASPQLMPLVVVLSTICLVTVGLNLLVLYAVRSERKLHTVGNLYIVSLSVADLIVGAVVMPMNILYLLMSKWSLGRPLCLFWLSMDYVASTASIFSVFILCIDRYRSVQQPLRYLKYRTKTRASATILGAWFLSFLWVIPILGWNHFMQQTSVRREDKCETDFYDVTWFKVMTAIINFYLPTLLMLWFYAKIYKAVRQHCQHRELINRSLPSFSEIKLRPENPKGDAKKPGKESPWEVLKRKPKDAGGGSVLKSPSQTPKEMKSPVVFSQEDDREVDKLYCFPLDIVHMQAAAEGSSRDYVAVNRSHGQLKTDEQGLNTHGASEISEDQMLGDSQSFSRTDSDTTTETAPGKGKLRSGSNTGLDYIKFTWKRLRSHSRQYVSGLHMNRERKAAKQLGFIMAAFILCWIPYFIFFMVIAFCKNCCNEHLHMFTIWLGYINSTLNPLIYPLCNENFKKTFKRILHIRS
Chain of Cytochrome P450 2C19 (P33261 whole entry): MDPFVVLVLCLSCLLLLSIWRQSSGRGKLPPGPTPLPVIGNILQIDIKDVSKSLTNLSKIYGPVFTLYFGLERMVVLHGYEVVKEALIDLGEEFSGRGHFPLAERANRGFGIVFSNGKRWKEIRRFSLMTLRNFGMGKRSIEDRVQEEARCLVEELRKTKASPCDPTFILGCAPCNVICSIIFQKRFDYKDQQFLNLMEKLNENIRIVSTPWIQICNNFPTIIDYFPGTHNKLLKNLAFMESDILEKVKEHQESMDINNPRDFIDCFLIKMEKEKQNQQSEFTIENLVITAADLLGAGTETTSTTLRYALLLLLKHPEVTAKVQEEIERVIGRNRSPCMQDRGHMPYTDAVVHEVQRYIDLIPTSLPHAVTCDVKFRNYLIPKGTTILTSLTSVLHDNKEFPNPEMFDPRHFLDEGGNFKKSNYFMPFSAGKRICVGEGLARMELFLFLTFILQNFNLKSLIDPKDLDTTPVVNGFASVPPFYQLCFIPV

## O=C1NCC2(CN3CCC2CC3)O1 (single isomer, unassigned)
[1]; filed as agonist
  Activity: Agonist

## CCc1c(C)oc2ccc(N3C[C@@]4(CN5CCC4CC5)OC3=O)cc12
[2]
  Ki: 0.015 µM

## O=C1O[C@]2(CN3CCC2CC3)CN1c1ccc2sccc2c1
Cytochrome P450 2D6
  IC50: > 30 µM
[2]
  Ki: 0.028 µM

## Cc1coc2ccc(N3C[C@@]4(CN5CCC4CC5)OC3=O)cc12
[3]
  IC50: > 10 µM
[4]
  Tmax: 2 h
[5]
  half-life: 3 h
[6]
  AUC(0-inf): 387 ng·h/mL
Cytochrome P450 2D6
  IC50: > 30 µM
Rattus norvegicus [7]
  Activity: Active
[8]
  IC50: 0.01 µM
[9]
  half-life: 3.3 h
[10]
  half-life: 1.7 h
Cytochrome P450 2C9
  Activity: Not Active
[11]
  bioavailability: 17.3%
Cytochrome P450 1A2
  Activity: Not Active
[12]
  Tmax: 2.3 h
[13]
  IC50: > 10 µM
D(1A) dopamine receptor
  IC50: > 10 µM
[14]
  clearance: 70.2 mL/min/kg
[15]
  clearance: 83.3 mL/min/kg
[16]
  Tmax: 3.3 h
[17]
  IC50: > 10 µM
[18]
  half-life: 5.4 h
[19]
  Cmax: 75.5 ng/mL
D(3) dopamine receptor
  IC50: > 10 µM
Histamine H3 receptor
  IC50: > 10 µM
[20]
  AUC(0-inf): 225 ng·h/mL
[21]
  Kp: 10.2
[22]
  Cmax: 384 ng/mL
[23]
  Tmax: 0.38 h
[24]
  bioavailability: 25.8%
[25]
  AUC(0-inf): 2020 ng·h/mL
[26]
  half-life: 6 h
[27]
  half-life: 1.9 h
[28]
  AUC(0-inf): 732 ng·h/mL
[29]
  bioavailability: 82.8%
[30]
  IC50: > 10 µM
Rattus norvegicus [31]
  Activity: Active
[32]
  Activity: Active
[33]
  Cmax: 9.1 ng/mL
[34]
  IC50: > 10 µM
[35]
  Cmax: 288 ng/mL
[36]
  IC50: > 10 µM
Rattus norvegicus [37]
  Activity: Dose-dependent effect
[38]
  bioavailability: 57.2%
[39]
  IC50: > 10 µM
Adrenergic receptor beta
  IC50: > 10 µM
[40]
  Vd: 10.7 L/kg
D(2) dopamine receptor
  IC50: > 10 µM
Rattus norvegicus [41]
  Activity: Active
[2]
  Ki: 0.003 µM
[42]
  AUC(0-inf): 1010 ng·h/mL
[43]
  Cmax: 618 ng/mL
D(4) dopamine receptor
  IC50: > 10 µM
[44]
  half-life: 4.2 h
[45]
  IC50: > 10 µM
Histamine H1 receptor
  IC50: > 10 µM
Cytochrome P450 3A4
  Activity: Not Active
[46]
  Vd: 7.59 L/kg
[47]
  AUC(0-inf): 63 ng·h/mL
[1]; filed as partial agonist
  Activity: Partial agonist
Rattus norvegicus [48]
  Activity: Dose-dependent effect
[49]
  IC50: > 10 µM
[50]
  Tmax: 0.36 h
[51]
  bioavailability: 10.5%
Cytochrome P450 2C19
  Activity: Not Active
[52]
  Tmax: 0.44 h
[53]
  Cmax: 120 ng/mL

## O=C1O[C@]2(CN3CCC2CC3)CN1c1ccc2c(c1)OCC2
[2]
  Ki: 0.41 µM

## O=C1O[C@]2(CN3CCC2CC3)CN1c1ccc2occc2c1
Cytochrome P450 2D6
  IC50: > 30 µM
[2]
  Ki: 0.019 µM
[1]; filed as agonist
  Activity: Agonist
